# In the supplement of paper PMC10733146:
# Columns and labels:
# Experiment in all cases: viability relative to DMSO control (fraction); higher = less drug effect (more viable cells)
# Conditions in all cases: 48 h
# [1] = compound: O=C(/C=C\n1cnc(-c2cc(C(F)(F)F)cc(C(F)(F)F)c2)n1)NNc1cnccn1 [Selinexor]
# Procedure, shortened: (§1)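 Viability is given as CellTiter-Glo luminescence relative to the median of 16 inner DMSO wells. Fresh or cryopreserved primary mononuclear tumour cells from blood, bone marrow (both Ficoll-isolated) or processed lymph node were plated at 4 × 10^4 cells per well in 384-well plates against five pre-plated compound concentrations, one well each. Incubation lasted 48 h at 37 °C and 5% CO2 in RPMI-1640 with penicillin/streptomycin, L-glutamine and human serum.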
# [2] = compound: O=C1CCC(N2C(=O)c3ccccc3C2=O)C(=O)N1 [Thalidomide]
# Procedure, shortened: as §1
# [3] = compound: CC1(C)CCC(c2ccc(Cl)cc2)=C(CN2CCN(c3ccc(C(=O)NS(=O)(=O)c4ccc(N[C@H](CCN5CCOCC5)CSc5ccccc5)c(S(=O)(=O)C(F)(F)F)c4)cc3)CC2)C1 [Navitoclax]
# Procedure, shortened: as §1
# [4] = compound: C[C@@H]1CCN(C(=O)CC#N)C[C@@H]1N(C)c1ncnc2[nH]ccc12 [Tofacitinib]
# Procedure, shortened: as §1
# [5] = compound: CC(C)N(CCCNC(=O)Nc1ccc(C(C)(C)C)cc1)C[C@H]1O[C@@H](n2cc(Br)c3c(N)ncnc32)[C@H](O)[C@@H]1O [SGC 0946]
# Procedure, shortened: as §1
# [6] = compound: CCN(c1cc(-c2ccc(CN3CCOCC3)cc2)cc(C(=O)NCc2c(C)cc(C)[nH]c2=O)c1C)C1CCOCC1 [EPZ-6438]
# Procedure, shortened: as §1
# [7] = compound: COc1cc([C@@H]2c3cc4c(cc3[C@@H](O[C@@H]3O[C@@H]5CO[C@@H](C)O[C@H]5[C@H](O)[C@H]3O)[C@H]3COC(=O)[C@H]23)OCO4)cc(OC)c1O [Etoposide]
# Procedure, shortened: as §1
# [8] = compound: C[C@H](Nc1ncnc2nc[nH]c12)c1cc2cccc(Cl)c2c(=O)n1-c1ccccc1 [Duvelisib]
# Procedure, shortened: as §1
# [9] = compound: O=C(Nc1ccc2[nH]nc(-c3ccncc3)c2c1)[C@@H]1CCN(CC(=O)N2CCN(c3ccc(-c4ncccn4)cc3)CC2)C1
# Procedure, shortened: as §1
# [10] = compound: CCc1ccc(/C=C2/SC(=S)NC2=O)cc1
# Procedure, shortened: as §1
# [11] = compound: CC(=O)c1c(C)c2cnc(Nc3ccc(N4CCNCC4)cn3)nc2n(C2CCCC2)c1=O [Palbociclib]
# Procedure, shortened: as §1
# [12] = compound: CCS(=O)(=O)N1CCC([C@@H](C)n2c(C)c(C(=O)NCc3c(OC)cc(C)[nH]c3=O)c3ccccc32)CC1 [CPI-169]
# Procedure, shortened: as §1
# [13] = compound: CC1(C)CCC(CN2CCN(c3ccc(C(=O)NS(=O)(=O)c4ccc(NCC5CCOCC5)c([N+](=O)[O-])c4)c(Oc4cnc5[nH]ccc5c4)c3)CC2)=C(c2ccc(Cl)cc2)C1 [Venetoclax]
# Procedure, shortened: as §1
test system,measurement,setting,value
primary DLBCL patient cells (S076),viability,[1]; 0.008 µM,0.97
same,viability,[1]; 0.04 µM,0.943
same,viability,[1]; 0.2 µM,0.819
same,viability,[1]; 1 µM,0.563
same,viability,[1]; 5 µM,0.331
same,viability,[2]; 0.032 µM,1.06
same,viability,[2]; 0.16 µM,0.993
same,viability,[2]; 0.8 µM,1.09
same,viability,[2]; 4 µM,1.11
same,viability,[2]; 20 µM,1.06
same,viability,[3]; 0.0032 µM,1.07
same,viability,[3]; 0.016 µM,0.95
same,viability,[3]; 0.08 µM,0.689
same,viability,[3]; 0.4 µM,0.279
same,viability,[3]; 2 µM,0.15
same,viability,[4]; 0.024 µM,0.916
same,viability,[4]; 0.12 µM,0.864
same,viability,[4]; 0.6 µM,0.818
same,viability,[4]; 3 µM,0.823
same,viability,[4]; 15 µM,0.824
same,viability,[5]; 0.024 µM,1.15
same,viability,[5]; 0.12 µM,1.16
same,viability,[5]; 0.6 µM,0.962
same,viability,[5]; 3 µM,1.06
same,viability,[5]; 15 µM,0.534
same,viability,[6]; 0.024 µM,1.13
same,viability,[6]; 0.12 µM,1.09
same,viability,[6]; 0.6 µM,1.18
same,viability,[6]; 3 µM,1.17
same,viability,[6]; 15 µM,1.03
same,viability,[7]; 0.032 µM,0.882
same,viability,[7]; 0.16 µM,1.05
same,viability,[7]; 0.8 µM,0.81
same,viability,[7]; 4 µM,0.901
same,viability,[7]; 20 µM,0.551
same,viability,[8]; 0.0016 µM,0.884
same,viability,[8]; 0.008 µM,0.839
same,viability,[8]; 0.04 µM,0.732
same,viability,[8]; 0.2 µM,0.718
same,viability,[8]; 1 µM,0.611
same,viability,[9]; 0.008 µM,0.991
same,viability,[9]; 0.04 µM,0.912
same,viability,[9]; 0.2 µM,0.796
same,viability,[9]; 1 µM,0.694
same,viability,[9]; 5 µM,0.622
same,viability,[10]; 0.024 µM,0.949
same,viability,[10]; 0.12 µM,0.942
same,viability,[10]; 0.6 µM,1.07
same,viability,[10]; 3 µM,0.995
same,viability,[10]; 15 µM,0.942
same,viability,[11]; 0.024 µM,1.14
same,viability,[11]; 0.12 µM,1.14
same,viability,[11]; 0.6 µM,0.991
same,viability,[11]; 3 µM,0.647
same,viability,[11]; 15 µM,0.221
same,viability,[12]; 0.024 µM,1.04
same,viability,[12]; 0.12 µM,1.04
same,viability,[12]; 0.6 µM,1.07
same,viability,[12]; 3 µM,0.993
same,viability,[12]; 15 µM,1.05
same,viability,[13]; 0.00064 µM,1.09
same,viability,[13]; 0.0032 µM,1.01
same,viability,[13]; 0.016 µM,0.622
same,viability,[13]; 0.08 µM,0.451
same,viability,[13]; 0.4 µM,0.374
primary T-NHL patient cells (S058),viability,[1]; 0.008 µM,0.967
same,viability,[1]; 0.04 µM,0.877
same,viability,[1]; 0.2 µM,0.806
same,viability,[1]; 1 µM,0.709
same,viability,[1]; 5 µM,0.469
same,viability,[2]; 0.032 µM,1.03
same,viability,[2]; 0.16 µM,1.02
same,viability,[2]; 0.8 µM,1.07
same,viability,[2]; 4 µM,1.14
same,viability,[2]; 20 µM,1.02
same,viability,[3]; 0.0032 µM,1.19
same,viability,[3]; 0.016 µM,1.08
same,viability,[3]; 0.08 µM,1.01
same,viability,[3]; 0.4 µM,0.568
same,viability,[3]; 2 µM,0.325
same,viability,[4]; 0.024 µM,0.865
same,viability,[4]; 0.12 µM,0.895
same,viability,[4]; 0.6 µM,0.94
same,viability,[4]; 3 µM,0.935
same,viability,[4]; 15 µM,0.937
same,viability,[5]; 0.024 µM,1.19
same,viability,[5]; 0.12 µM,1.12
same,viability,[5]; 0.6 µM,0.867
same,viability,[5]; 3 µM,1.01
same,viability,[5]; 15 µM,0.486
same,viability,[6]; 0.024 µM,1.21
same,viability,[6]; 0.12 µM,1.24
same,viability,[6]; 0.6 µM,1.03
same,viability,[6]; 3 µM,1.16
same,viability,[6]; 15 µM,0.95
same,viability,[7]; 0.032 µM,0.838
same,viability,[7]; 0.16 µM,1.16
same,viability,[7]; 0.8 µM,0.739
same,viability,[7]; 4 µM,0.654
same,viability,[7]; 20 µM,0.268
same,viability,[8]; 0.0016 µM,1.1
same,viability,[8]; 0.008 µM,1.04
same,viability,[8]; 0.04 µM,0.923
same,viability,[8]; 0.2 µM,1.03
same,viability,[8]; 1 µM,0.91
same,viability,[9]; 0.008 µM,1.04
same,viability,[9]; 0.04 µM,1.1
same,viability,[9]; 0.2 µM,1.01
same,viability,[9]; 1 µM,0.989
same,viability,[9]; 5 µM,0.908
same,viability,[10]; 0.024 µM,0.89
same,viability,[10]; 0.12 µM,0.978
same,viability,[10]; 0.6 µM,1.14
same,viability,[10]; 3 µM,0.927
same,viability,[10]; 15 µM,0.909
same,viability,[11]; 0.024 µM,1.15
same,viability,[11]; 0.12 µM,1.32
same,viability,[11]; 0.6 µM,1.08
same,viability,[11]; 3 µM,0.899
same,viability,[11]; 15 µM,0.538
same,viability,[12]; 0.024 µM,1.03
same,viability,[12]; 0.12 µM,1.06
same,viability,[12]; 0.6 µM,0.995
same,viability,[12]; 3 µM,1.05
same,viability,[12]; 15 µM,0.961
same,viability,[13]; 0.00064 µM,1.06
same,viability,[13]; 0.0032 µM,1.13
same,viability,[13]; 0.016 µM,0.921
same,viability,[13]; 0.08 µM,0.718
same,viability,[13]; 0.4 µM,0.547
